Results taken from patent publication US6440996B1, “Monomeric and dimeric heterocycles, and therapeutic uses thereof” (priority 1998, dated 2002).
Counter-ions that a name gives are not always drawn. Like-named read-outs stand apart in the source and are kept apart here.

Columns and labels:
dopamine transporter [1] = target: T1, dopamine transporter (Rattus norvegicus, UniProt P23977); test: [3H]WIN 35,428 binding to rat striatal membranes / dopamine transporter binding (DAT)
T1 construct: from tissue; P2 synaptosomes for uptake
T1 sequence (P23977 whole entry): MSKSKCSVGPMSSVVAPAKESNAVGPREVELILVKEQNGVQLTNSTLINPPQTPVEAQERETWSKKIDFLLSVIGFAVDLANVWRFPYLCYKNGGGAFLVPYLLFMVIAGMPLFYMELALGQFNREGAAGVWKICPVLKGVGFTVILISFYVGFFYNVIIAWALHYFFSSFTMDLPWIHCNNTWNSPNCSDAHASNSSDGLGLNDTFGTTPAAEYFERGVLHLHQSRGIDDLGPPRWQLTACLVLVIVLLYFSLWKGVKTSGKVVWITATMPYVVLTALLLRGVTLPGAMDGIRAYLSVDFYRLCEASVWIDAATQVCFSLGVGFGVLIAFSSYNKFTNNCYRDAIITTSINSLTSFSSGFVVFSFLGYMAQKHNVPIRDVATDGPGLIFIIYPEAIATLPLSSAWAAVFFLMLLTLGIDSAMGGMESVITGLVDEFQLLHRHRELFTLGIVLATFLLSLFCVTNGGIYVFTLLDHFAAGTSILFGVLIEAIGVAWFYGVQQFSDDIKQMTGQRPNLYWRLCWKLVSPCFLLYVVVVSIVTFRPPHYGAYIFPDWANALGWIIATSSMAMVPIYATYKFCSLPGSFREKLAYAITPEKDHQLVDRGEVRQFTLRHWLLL
Description: (§1) Determination of inhibitory binding potencies of analogues at dopamine, serotonin, and norepinephrine transporters are carried out using standard receptor binding assays which are known in the art.
A. Dopamine Transporter Binding (DAT)

serotonin transporter = serotonin transporter (Rattus norvegicus, UniProt P31652); test: Serotonin transporter binding (5-HTT)
serotonin transporter, sequence (P31652 whole entry): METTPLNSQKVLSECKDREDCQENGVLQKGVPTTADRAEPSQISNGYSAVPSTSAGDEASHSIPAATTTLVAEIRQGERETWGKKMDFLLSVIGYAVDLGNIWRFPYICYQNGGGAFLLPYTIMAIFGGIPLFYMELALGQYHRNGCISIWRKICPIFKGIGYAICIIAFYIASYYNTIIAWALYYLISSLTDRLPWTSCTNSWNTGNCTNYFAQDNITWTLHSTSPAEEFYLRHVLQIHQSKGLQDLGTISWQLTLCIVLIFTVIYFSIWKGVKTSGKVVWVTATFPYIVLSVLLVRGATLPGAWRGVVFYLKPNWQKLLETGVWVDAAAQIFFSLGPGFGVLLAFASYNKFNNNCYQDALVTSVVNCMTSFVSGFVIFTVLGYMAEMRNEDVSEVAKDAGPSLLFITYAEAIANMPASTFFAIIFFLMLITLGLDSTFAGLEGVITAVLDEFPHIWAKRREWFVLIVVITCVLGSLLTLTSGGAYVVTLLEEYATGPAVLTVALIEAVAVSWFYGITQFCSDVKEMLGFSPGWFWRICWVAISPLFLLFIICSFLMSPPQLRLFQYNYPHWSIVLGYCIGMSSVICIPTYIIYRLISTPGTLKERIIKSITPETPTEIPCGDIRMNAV
Description: as §1
B. Serotonin Transporter Binding (5-HTT)
Mol. Pharmacol., 39, 339.

[2] = target: norepinephrine transporter (Rattus norvegicus, UniProt Q9WTR4); test: Norepinephrine transporter binding (NET)
norepinephrine transporter, sequence (Q9WTR4 1-597): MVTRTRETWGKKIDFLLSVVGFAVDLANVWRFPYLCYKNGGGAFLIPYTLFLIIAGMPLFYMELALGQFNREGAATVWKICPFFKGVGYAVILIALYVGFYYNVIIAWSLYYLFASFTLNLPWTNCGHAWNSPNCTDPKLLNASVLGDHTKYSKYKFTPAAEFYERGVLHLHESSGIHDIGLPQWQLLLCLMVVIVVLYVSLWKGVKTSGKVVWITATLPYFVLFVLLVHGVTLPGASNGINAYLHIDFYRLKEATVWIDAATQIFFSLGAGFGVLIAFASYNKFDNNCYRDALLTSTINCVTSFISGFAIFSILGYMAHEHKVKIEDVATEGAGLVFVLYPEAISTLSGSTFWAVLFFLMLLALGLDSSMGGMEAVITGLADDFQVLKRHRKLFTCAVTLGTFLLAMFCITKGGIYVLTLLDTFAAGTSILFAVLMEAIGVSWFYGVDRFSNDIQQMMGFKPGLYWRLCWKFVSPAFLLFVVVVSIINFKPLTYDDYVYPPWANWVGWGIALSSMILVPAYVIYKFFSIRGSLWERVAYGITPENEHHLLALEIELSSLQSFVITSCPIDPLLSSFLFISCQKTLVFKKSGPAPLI
Description: as §1
C. Norepinephrine Transporter Binding (NET)
J. Med Chem., 36, 2886-2890.

dopamine transporter [3] = target: T1, dopamine transporter; test: Inhibition of high-affinity [3H]dopamine uptake into rat striatal nerve endings (synaptosomes); assay type: biochemical
Description: A. [^3H]Dopamine Uptake Studies
The effect of candidate compounds in antagonizing dopamine high-affinity uptake was determined using a method previously employed. For [^3H]DA uptake, dissected rat striata were homogenized with a Teflon-glass pestle in ice-cold 0.32 M sucrose and centrifuged for 10 min at 1000×g. The supernatant was centrifuged at 17,500×g for 20 min. This P2 synaptosomal pellet was resuspended in 30 volumes of ice-cold modified KRH buffer. An aliquot of the synaptosomal suspension was preincubated with the buffer and drug for 30 min at 37° C., and uptake initiated by the addition of [^3H]dopamine (5 nM, final concentration). After 5 min, uptake was terminated by adding 5 mL of cold buffer containing glucosamine as a substitute for NaCl and then finally by rapid vacuum filtration over GF-C glass fiber filters, followed by washing with two 5 mL volumes of ice-cold, sodium-free buffer. Radioactivity retained on the filters was determined by liquid scintillation spectrometry. […] It is identical to that calculated by subtracting the mean of identical tubes incubated at 0° C.

[4] = Table 2, unit inferred, read-out: Dopamine Uptake
[5] = rat striatal synaptosomes, Table 1, read-out: IC50 (nM) [3H]dopamine uptake
[6] = IC50 (nM) [3H]WIN 35,428 binding, rat striatal membranes, Table 1
[7] = Table 2, read-out: DAT IC50 (nm)
[8] = rat striatal membranes, Table 1, read-out: IC50 (nM) [3H]WIN 35,428 binding
[9] = Table 2, read-out: 5-HTT IC50 (nm)
[10] = Table 2, read-out: NET IC50 (nm)

CCc1ccc(C2CCN(C)CC2C(=O)OC)cc1I (single isomer, unassigned; (-)) [Compound 66, (−)-Methyl 4β-(4-Ethyl-3-iodophenyl)-1-methylpiperidine-3β-carboxylate]
IC50 (dopamine transporter [1]; DAT IC50 (nm), Table 2): 4410 nM

C=Cc1ccc(C2CCN(C)CC2C(=O)OC)cc1 (single isomer, unassigned; (-)) [Compound 64, (−)-Methyl 4β-(4-Vinylphenyl)-1-methylpiperidine-3β-carboxylate]
IC50 (serotonin transporter; 5-HTT IC50 (nm), Table 2): 13200 nM | melting point: 68 to 69 °C | IC50 [2]: 65800 nM

COC(=O)C1CN(C)CCC1c1ccc2ccccc2c1 (racemic) [Compound 75, (±)-Methyl 4-(2-Naphthyl)-1-methylpiperidine-3-carboxylate]
IC50 (dopamine transporter [1]; DAT IC50 (nm), Table 2): 78 nM | IC50 (serotonin transporter; 5-HTT IC50 (nm), Table 2): 366 nM | IC50 [2]: 607 nM

COC(=O)C1CN(C)CCC1c1ccc(Cl)cc1 (single isomer, unassigned; (+)) [Compound 4, (+)-Methyl 4β-(4-Chlorophenyl)-1-methylpiperidine-3β-carboxylate]
IC50 (dopamine transporter [3]; [4]): 5090 nM | IC50 (dopamine transporter [3]; [5]): 5090 ± 172 nM

CN1CC[C@H](c2ccc(Cl)cc2)[C@H](CO)C1 [Compound 5, (−)-4β-(4-Chlorophenyl)-3β-(hydroxymethyl)-1-methylpiperidine]
IC50 (dopamine transporter [1]; DAT IC50 (nm), Table 2): 75 nM | IC50 (dopamine transporter [1]; [6]): 75.3 ± 6.2 nM | IC50 (dopamine transporter [3]; [4]): 49 nM | IC50 (dopamine transporter [3]; [5]): 49 ± 3 nM

CCC[C@@H]1CN(C)CC[C@@H]1c1ccc(Cl)cc1 [Compound 9, (−) 4β-(4-Chlorophenyl)-1-methyl-3β-n-propylpiperidine]
IC50 (dopamine transporter [1]; [7]): 3 nM | IC50 (dopamine transporter [1]; [8]): 3 ± 0.5 nM | IC50 (dopamine transporter [1]; read-out: binding affinity): 3 nM | fold more potent than cocaine in binding affinity (dopamine transporter [1]; relative to cocaine): 33 fold | IC50 (dopamine transporter [3]; [4]): 8 nM | IC50 (dopamine transporter [3]; [5]): 8.3 ± 0.6 nM | fold more potent than cocaine in inhibition of dopamine uptake (dopamine transporter [3]; relative to cocaine): 29 fold

CN1CCC(c2ccc(Cl)cc2)C(CCCS)C1 (single isomer, unassigned; (+)) [Compound 55]
IC50 (dopamine transporter [1]; [7]): 28 nM

Cc1noc(C2CN(C)CCC2c2ccc(Cl)cc2)n1 (single isomer, unassigned; (+)) [Compound 56]
IC50 (dopamine transporter [1]; [7]): 172 nM | IC50 (serotonin transporter; [9]): > 10000 nM | IC50 [2, 10]: 1130 nM

CCCC1CN(C)CCC1c1ccc(Cl)cc1 (single isomer, unassigned; (+)) [Compound 15, (+) 4β-(4-Chlorophenyl)-1-methyl-3α-n-propylpiperidine]
IC50 (dopamine transporter [1]; [8]): 17.2 ± 0.5 nM | IC50 (dopamine transporter [3]; [4]): 23 nM | IC50 (dopamine transporter [3]; [5]): 23.2 ± 2.2 nM | IC50 (serotonin transporter; [9]): 155 nM | IC50 [2, 10]: 183 nM

COC(=O)[C@H]1CN(C)CC[C@@H]1c1ccc(Cl)cc1 [Compound 11, (+)-Methyl 4β-(4-Chlorophenyl)-1-methylpiperidine-3α-carboxylate]
IC50 (dopamine transporter [1]; [7]): 57 nM | IC50 (dopamine transporter [1]; [8]): 57.3 ± 8.1 nM | IC50 (dopamine transporter [3]; [4]): 34 nM | IC50 (dopamine transporter [3]; [5]): 34.6 ± 3.2 nM | IC50 (serotonin transporter; 5-HTT IC50 (nm), Table 2): 1620 nM | IC50 [2]: 4200 nM

COC(=O)C1CN(C)CCC1c1ccc(Cl)cc1 (racemic) [1 · HCl]
IC50 (dopamine transporter [1]; DAT IC50 (nm), Table 2): 53 nM

CN1CCC(c2ccc(Cl)cc2)C(CO)C1 (single isomer, unassigned; (+)) [Compound 6, (+)-4β-(4-Chlorophenyl)-3β-(hydroxymethyl)-1-methylpiperidine]
IC50 (dopamine transporter [1]; DAT IC50 (nm), Table 2): 442 nM | IC50 (dopamine transporter [1]; [6]): 442 ± 32 nM

CC(=O)OC[C@@H]1CN(C)CC[C@@H]1c1ccc(Cl)cc1 [Compound 7, (−)-3β-(Acetoxymethyl)-4β-(4-chlorophenyl)-1-methylpiperidine]
IC50 (dopamine transporter [1]; DAT IC50 (nm), Table 2): 10 nM | IC50 (dopamine transporter [1]; [8]): 44.7 ± 10.5 nM | IC50 (dopamine transporter [3]; [4]): 63 nM | IC50 (dopamine transporter [3]; [5]): 62.9 ± 2.7 nM | melting point: 76 °C | IC50 [2]: 233 nM

CC(=O)OCC1CN(C)CCC1c1ccc(Cl)cc1 (single isomer, unassigned; (+)) [Compound 14, (+)-3α-(Acetoxymethyl)-4β-(4-chlorophenyl)-1-methylpiperidine]
IC50 (dopamine transporter [1]; DAT IC50 (nm), Table 2): 461 nM | IC50 (dopamine transporter [1]; [6]): 461 ± 11 nM

COC(=O)C1CN(Cc2ccccc2)CCC1c1ccc(Cl)cc1 (single isomer, unassigned; (-)) [Compound 47, (−)-Methyl 4β-(4-Chlorophenyl)-1-benzylpiperidine-3β-carboxylate]
IC50 (dopamine transporter [1]; DAT IC50 (nm), Table 2): 917 nM | melting point: 119 to 121 °C

CN1CC[C@H](c2ccc(Cl)cc2)[C@@H](CCCO)C1 [Compound 54]
IC50 (dopamine transporter [1]; DAT IC50 (nm), Table 2): 15 nM | IC50 (serotonin transporter): 2810 nM | IC50 [2]: 563 nM

CN1CCC(c2ccc(Cl)cc2)C(CO)C1 (single isomer, unassigned; (+)) [Compound 13, (+)-4β-(4-Chlorophenyl)-3α-(hydroxymethyl)-1-methylpiperidine]
IC50 (dopamine transporter [1]; DAT IC50 (nm), Table 2): 240 nM | IC50 (dopamine transporter [1]; [6]): 240 ± 18 nM | IC50 (dopamine transporter [3]; [4]): 864 nM | IC50 (dopamine transporter [3]; [5]): 683 ± 47 nM

COC(=O)[C@@H]1CN(C)CC[C@@H]1c1ccc(Cl)cc1 (racemic) [Compound 1, (±)-cis-Methyl 4-(4-Chlorophenyl)-1-methylpiperidine-3-carboxylate]
IC50 (dopamine transporter [1]; DAT IC50 (nm), Table 2): 22 nM | IC50 (dopamine transporter [1]; [6]): 53.7 ± 1.9 nM | IC50 (dopamine transporter [3]; [5]): 37.8 ± 7.9 nM | melting point: 98 to 99 °C

COC(=O)[C@@H]1CN(C)CC[C@@H]1c1ccccc1 [Compound 10, (−)-Methyl 1-Methyl-4β-phenylpiperidine-3β-carboxylate]
IC50 (dopamine transporter [1]; DAT IC50 (nm), Table 2): 797 nM | IC50 (dopamine transporter [1]; [6]): 769 ± 19 nM

CCc1ccc(C2CCN(C)CC2C(=O)OC)cc1I (single isomer, unassigned; (+)) [Compound 68, (+)-Methyl 4β-(4-Ethyl-3-iodophenyl)-1-methylpiperidine-3α-carboxylate]
IC50 (dopamine transporter [1]; DAT IC50 (nm), Table 2): 1420 nM

COC(=O)C1(C)CN(C)CCC1c1ccc(Cl)cc1 (single isomer, unassigned; (-)) [Compound 49, (−)-Methyl 4β-(4-Chlorophenyl)-3β-methyl-1-methylpiperidine-3b-carboxylate]
IC50 (dopamine transporter [1]; DAT IC50 (nm), Table 2): 1970 nM

CCc1ccc(C2CCN(C)CC2C(=O)OC)cc1 (single isomer, unassigned; (-)) [Compound 81, (−)-Methyl 4β-(4-Ethylphenyl)-1-methylpiperidine-3β-carboxylate]
IC50 (dopamine transporter [1]; [7]): 1690 nM | IC50 (serotonin transporter; 5-HTT IC50 (nm), Table 2): 15700 nM | IC50 [2, 10]: > 10000 nM

CN1CCC(c2ccc(Cl)cc2)C(c2nc(-c3ccccc3)no2)C1 (single isomer, unassigned; (+)) [Compound 58]
IC50 (dopamine transporter [1]; DAT IC50 (nm), Table 2): 289 nM | IC50 (serotonin transporter): 7400 nM

COC(=O)C1CN(S(=O)(=O)c2ccccc2)CCC1c1ccc(Cl)cc1 (single isomer, unassigned; (-)) [Compound 46, (−)-Methyl 4β-(4-Chlorophenyl)-1-phenylsulfonyl-piperidine-3β-carboxylate]
IC50 (dopamine transporter [1]; DAT IC50 (nm), Table 2): 26100 nM | melting point: 76 to 78 °C | IC50 [2]: > 10000 nM

CN1CCC(c2ccc(Cl)cc2)C(C(=O)Oc2ccccc2)C1 (single isomer, unassigned; (+)) [Compound 59, (+)-Phenyl 4β-(4-Chlorophenyl)-1-methylpiperidine-3α-carboxylate]
IC50 (dopamine transporter [1]; DAT IC50 (nm), Table 2): 1460 nM | IC50 (serotonin transporter; 5-HTT IC50 (nm), Table 2): 25100 nM | IC50 [2]: 56500 nM

COC(=O)C1CN(C)CCC1c1ccc(Br)cc1 (single isomer, unassigned; (-)) [Compound 63, (−)-Methyl 4β-(4-Bromophenyl)-1-methylpiperidine-3β-carboxylate]
IC50 (dopamine transporter [1]; DAT IC50 (nm), Table 2): 3 nM | IC50 (serotonin transporter; 5-HTT IC50 (nm), Table 2): 1100 nM | melting point: 121 to 122 °C

CN1CCC(c2ccc(Cl)cc2)C(C(=O)Oc2ccccc2)C1 (single isomer, unassigned; (-)) [Compound 60, (−)-Phenyl 4β-(4-Chlorophenyl)-1-methylpiperidine-3b-carboxylate]
IC50 (dopamine transporter [1]; DAT IC50 (nm), Table 2): 39 nM

COC(=O)C1CN(C)CCC1c1ccc(Cl)cc1 (single isomer, unassigned; (-)) [Compound 12, (−)-Methyl 4β-(4-Chlorophenyl)-1-methylpiperidine-3α-carboxylate]
IC50 (dopamine transporter [1]; DAT IC50 (nm), Table 2): 653 nM | IC50 (dopamine transporter [1]; [6]): 653 ± 38 nM | IC50 (dopamine transporter [3]; [4]): 195 nM | IC50 (dopamine transporter [3]; [5]): 195 ± 8 nM

CN1CC[C@H](c2ccc(Cl)cc2)[C@@H](CCCF)C1 [Compound 80, (+)-4β-(4-Chlorophenyl)-3α-(3-fluoropropyl)-1-methylpiperidine]
IC50 (dopamine transporter [1]; DAT IC50 (nm), Table 2): 28 nM

CCc1ccc(C2CCN(C)CC2C(=O)OC)cc1 (single isomer, unassigned; (+)) [Compound 67, (+)-Methyl 4β-(4-Ethylphenyl)-1-methylpiperidine-3α-carboxylate]
IC50 (dopamine transporter [1]; [7]): 7340 nM

CC(=O)OCC1CN(C)CCC1c1ccc(Cl)cc1 (single isomer, unassigned; (+)) [Compound 8, (+)-3β-(Acetoxymethyl)-4β-(4-chlorophenyl)-1-methylpiperidine]
IC50 (dopamine transporter [1]; DAT IC50 (nm), Table 2): 928 nM | IC50 (dopamine transporter [1]; [6]): 928 ± 43 nM | IC50 (dopamine transporter [3]; [4]): 2030 nM | IC50 (dopamine transporter [3]; [5]): 2030 ± 82 nM

C=Cc1ccc(C2CCN(C)CC2C(=O)OC)cc1 (single isomer, unassigned; (+)) [Compound 65, (+)-Methyl 4β-(4-Vinylphenyl)-1-methylpiperidine-3α-carboxylate]
IC50 (serotonin transporter; 5-HTT IC50 (nm), Table 2): 55700 nM
